Test results: ChEMBL document CHEMBL5120926, “Isolation and Synthesis of Azuriaplysins A and B, Bromoditerpenes with an α-Methylene Carbonyl from the Sea Hare Aplysia kurodai” (J Nat Prod, 2022)

System: HeLa S3
Experiment: Cytotoxicity against human HeLa S3 cells assessed as inhibition of cell growth incubated for 72 hrs by MTT assay
Assay type: functional, cell-based

## C=C(CC[C@@H]1[C@@]2(C)CC[C@H](Br)C(C)(C)[C@@H]2CC[C@@]1(C)O)C(=O)CO (stereo in doubt; form 2)
Hela s3
  IC50: 5.2 µM

## C=C(C=O)CC[C@@H]1[C@@]2(C)CC[C@H](Br)C(C)(C)[C@@H]2CC[C@@]1(C)O (stereo in doubt; form 2)
Hela s3
  IC50: 24 µM

## C=C(C=O)CC[C@@H]1[C@@]2(C)CC[C@H](Br)C(C)(C)[C@@H]2CC[C@@]1(C)O (stereo in doubt; form 3)
Hela s3
  IC50: 14 µM

## C=C(CC[C@@H]1[C@@]2(C)CC[C@H](Br)C(C)(C)[C@@H]2CC[C@@]1(C)O)C(=O)CO (stereo in doubt; form 1)
Homo sapiens, HeLa S3, 72 h
  IC50: 8.1 µM

## C=C(C=O)CC[C@@H]1[C@@]2(C)CC[C@H](Br)C(C)(C)[C@@H]2CC[C@@]1(C)O (stereo in doubt; form 1)
Hela s3
  IC50: 40 µM

## C=C(CC[C@@H]1[C@@]2(C)CC[C@H](Br)C(C)(C)[C@@H]2CC[C@@]1(C)O)C(=O)CO (stereo in doubt; form 3)
Hela s3
  IC50: 4.1 µM
